# How the values were obtained:
# Assay in all cases: relative viability (nuclei count vs DMSO), 5 days (fraction); higher = more cells survive
# SGI-1776 + Luminespib = compound: CN1CCC(CNc2ccc3ncc(-c4cccc(OC(F)(F)F)c4)n3n2)CC1 [SGI-1776] + CCNC(=O)c1noc(-c2cc(C(C)C)c(O)cc2O)c1-c1ccc(CN2CCOCC2)cc1 [Luminespib] (partner 0.01 µM)
# Summary of the method: (§1)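 Relative viability equals treated-well nuclei counts divided by vehicle-well nuclei counts. Counts came from 4× images of lung cancer cell lines grown in 1536-well plates for 5 days after pin-tool dosing on the day after seeding. Dosing used one drug alone or a fixed anchor-drug dose plus five library-drug doses (not always all listed) in √10 steps, and values are medians of duplicate plates.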
# SGI-1776 + Decitabine = compound: CN1CCC(CNc2ccc3ncc(-c4cccc(OC(F)(F)F)c4)n3n2)CC1 [SGI-1776] + Nc1ncn([C@H]2C[C@H](O)[C@@H](CO)O2)c(=O)n1 [Decitabine] (partner 2 µM)
# Summary of the method: as §1
# Entinostat + Pictilisib = compound: Nc1ccccc1NC(=O)c1ccc(CNC(=O)OCc2cccnc2)cc1 [Entinostat] + CS(=O)(=O)N1CCN(Cc2cc3nc(-c4cccc5[nH]ncc45)nc(N4CCOCC4)c3s2)CC1 [Pictilisib] (partner 1 µM)
# Summary of the method: as §1
# Entinostat + Vorinostat = compound: Nc1ccccc1NC(=O)c1ccc(CNC(=O)OCc2cccnc2)cc1 [Entinostat] + O=C(CCCCCCC(=O)Nc1ccccc1)NO [Vorinostat] (partner 1 µM)
# Summary of the method: as §1
cell line,measurement,setting,value
UMC-11,relative viability,SGI-1776 + Luminespib; first compound 0.08 µM,1.02
same,relative viability,SGI-1776 + Luminespib; first compound 0.8 µM,0.971
same,relative viability,SGI-1776 + Luminespib; first compound 2.53 µM,0.899
same,relative viability,SGI-1776 + Luminespib; first compound 8 µM,0.862
same,relative viability,SGI-1776 + Decitabine; first compound 0.08 µM,0.588
same,relative viability,SGI-1776 + Decitabine; first compound 0.8 µM,0.571
same,relative viability,SGI-1776 + Decitabine; first compound 2.53 µM,0.654
same,relative viability,SGI-1776 + Decitabine; first compound 8 µM,0.467
same,relative viability,Entinostat + Pictilisib; first compound 0.02 µM,0.865
same,relative viability,Entinostat + Pictilisib; first compound 0.06325 µM,0.848
same,relative viability,Entinostat + Pictilisib; first compound 0.2 µM,0.836
same,relative viability,Entinostat + Pictilisib; first compound 0.6325 µM,0.144
same,relative viability,Entinostat + Pictilisib; first compound 2 µM,0.136
same,relative viability,Entinostat + Vorinostat; first compound 0.02 µM,0.43
same,relative viability,Entinostat + Vorinostat; first compound 0.06325 µM,0.321
same,relative viability,Entinostat + Vorinostat; first compound 0.2 µM,0.242
same,relative viability,Entinostat + Vorinostat; first compound 0.6325 µM,0.181
same,relative viability,Entinostat + Vorinostat; first compound 2 µM,0.12
